Test results: US10407415B2, “Dihydrate of benzothiophene compound or of a salt thereof, and process for producing the same” (OTSUKA PHARMACEUTICAL CO., LTD., priority 2012, dated 2019)

How the values were obtained:
[1] = Measurement of drug residue in muscle; format: in vivo; settings: rat, injectable preparation 100 mg/mL (finely ground, mean particle diameter 3.5 μm) intramuscularly injected at 25 mg/kg, dissected 56 days after the injection
Description: The dihydrate of the present invention (150 mg) was dispersed to the suspension medium (1 mL) described below, and pulverized using 5 mm zirconia beads (1.2 g, pulverization time: 30 min) while being stirred with a stirrer. The suspension medium used for pulverization was a solution containing 0.832% (w/v) sodium carboxymethylcellulose (CMC-Na), 4.16% (w/v) mannitol, and 0.074% (w/v) sodium dihydrogenphosphatemonohydrate. The pH thereof was adjusted to 7.0 by adding an appropriate amount of sodium hydroxide. The concentration of each preparation was adjusted to 100 mg/mL using this medium.
An anhydride was subjected to pulverization in the same manner to obtain an anhydride (finely ground product) having a mean particle diameter of 3.5 μm. The mean particle diameter was measured using a laser diffraction particle size analyzer (SALD-3000) or SALD-3100, manufactured by Shimadzu Corporation).
Injectable preparations each containing the dihydrate of the present invention (finely ground product, mean particle diameter: 3.5 μm) or an anhydride (finely ground product, mean particle diameter: 3.5 μm) were obtained by the procedure described above.
Each injectable preparation thus obtained was intramuscularly injected into a rat in a dosage of 25 mg/kg. Each injectable preparation was injected into three rats.

[2] = Pharmacokinetics test using a dog (intramuscular injectable preparation); format: in vivo; settings: 10 mg/kg calculated as the anhydride
Description: Injectable preparations containing the dihydrate of the present invention as an active ingredient were formulated as shown in Table 3. Each of the injectable preparations was injected into the thigh muscle of a dog in such a dosage that 10 mg/kg of active ingredient calculated as the anhydride of the present invention was contained. FIG. 14 is a graph showing the mean blood concentration-time profile after the injection. As is clear from FIG. 14, the sustained release property can be stably maintained for more than 30 days from the injection.

SMILES | The number having residue in muscle (Number having residue/Total) [1] | time for which the sustained release property is stably maintained (mean blood concentration-time profile, FIG. 14) ([2]; injected into the thigh muscle, Table 3 formulation) | Stimulation at the injection site ([2]; thigh muscle injection, observed 7 days after the injection) | The number having residue in muscle (Number having residue/Total) ([1]; dihydrate)
O=c1ccc2ccc(OCCCCN3CCN(c4cccc5sccc45)CC3)cc2[nH]1 [Anhydride, 7-[4-(4-benzo[b]thiophen-4-yl-piperazin-1-yl)butoxy]-1H-quinolin-2-one anhydride, reference compound] | 0/3 | – | – | –
O=c1ccc2ccc(OCCCCN3CCN(c4cccc5sccc45)CC3)cc2[nH]1 [Dihydrate, 7-[4-(4-benzo[b]thiophen-4-yl-piperazin-1-yl)butoxy]-1H-quinolin-2-one dihydrate] | – | more than 30 days | low | 3/3
